This passage reports GI50 and IC50 results from patent US20070112044A1, “Thiadiazoline derivative” (Kyowa Hakko Kogyo Co., Ltd., priority 2003, published 2007).

Like-named read-outs stand apart in the source and are kept apart here.

For test [1], the system named is HCT 116 human colon carcinoma cells. As to the kind of experiment: Antiproliferative activity against HCT 116 human colon carcinoma cells (XTT). It counts as cell-based. As to the method:
HCT 116 cells (ATCC No.: CCL-247) were placed on a 96-well microtiter plate (Nunc, 167008) at a density of 1×10^3 cells/well. The plate was incubated in a 5% CO2 incubator at 37° C. for 24 hours, and then to the plate was added test compounds diluted stepwise to 100 μL/well in total, and the plate was further incubated in a 5% CO2 incubator at 37° C. for 72 hours. To the culture medium, the XTT (sodium 3′-[1-(phenylaminocarbonyl)-3,4-tetrazolium]-bis(4-methoxy-6-nitro)benzenesulfonic acid hydrate) labeling mixture (Roche Diagnostics, 1465015) was dispensed in 50 μL/well portions, then the plate was incubated in a 5% CO2 incubator at 37° C. for 1 hour, and the absorbance was measured at 490 nm and 655 nm with a microplate spectrophotometer (Bio-Rad, Model 550). The inhibitory activity against cell proliferation was shown as GI50, a concentration of compound at which induces 50% inhibition of cell proliferation.
GI50 calculation method: The value (difference in absorbance) was calculated by subtracting the absorbance at 655 nm from the absorbance at 490 nm of each well. The difference in absorbance obtained from the cells untreated with a test compound was defined as 100%, and compared with the difference in absorbance obtained from the cells treated with the solution of the compound in the known concentration, and thereby the concentration of the compound of 50% inhibition against cell proliferation was calculated to obtain GI50.
For orientation: Tetrazolium assays rely on reduction of a dye to a coloured formazan, in cell work by metabolically active cells.

In test [2] the target is T1, recombinant human Eg5 motor domain protein (Homo sapiens, UniProt P52732).
T1 construct: A plasmid expressing the motor domain of human Eg5 was constructed; made in house; host or cells: Escherichia coli BL21 (DE3)
T1 sequence (P52732 18-359 limits assumed): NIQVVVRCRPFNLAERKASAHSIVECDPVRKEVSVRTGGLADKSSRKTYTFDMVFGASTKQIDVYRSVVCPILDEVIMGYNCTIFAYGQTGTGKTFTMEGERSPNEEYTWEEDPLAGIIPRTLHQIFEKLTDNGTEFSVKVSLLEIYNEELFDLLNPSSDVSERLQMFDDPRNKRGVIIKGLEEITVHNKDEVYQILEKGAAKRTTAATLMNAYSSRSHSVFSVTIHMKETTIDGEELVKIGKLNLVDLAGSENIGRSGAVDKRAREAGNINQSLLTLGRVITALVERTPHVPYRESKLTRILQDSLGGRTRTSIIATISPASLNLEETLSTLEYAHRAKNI
Kind of test: Eg5 enzyme inhibition test (2), ATPase activity. It counts as biochemical. As to conditions: 30° C. for 30 minutes, concentration-dependent inhibition. The procedure: A recombinant human Eg5 motor domain protein was prepared by referring to the literature [Biochemistry, Vol. 35, p. 2365 (1996)]. A plasmid expressing the motor domain of human Eg5 was constructed, and transformed into Escherichia coli BL21 (DE3). The transformant was cultured at 25° C, and when the OD600 reached 0.74, isopropyl-β-D-thiogalactoside was added at a final concentration of 0.5 mmol/L. The transformant was further cultured for 4 hours, and then the culture medium was centrifuged to collect the cells. The cells were suspended in a buffer and ultrasonicated, and then the sonicated solution was centrifuged to recover the supernatant. The supernatant was purified by cation exchange column chromatography to obtain a partially purified sample. Furthermore, the partially purified sample was purified by gel filtration column chromatography to obtain a finally purified sample.
Measurement of the ATPase activity of Eg5 was carried out by referring to the literatures [EMBO Journal, Vol. 13, p. 751 (1994); Proc. Natl. Acad. Sci. USA, Vol. 89, p. 4884 (1992)]. The following two kinds of solutions were prepared: Solution A consisting of 25 mmol/L piperazine N,N′-bis(ethanesulfonate) (PIPES)/KOH (pH 6.8), 1 mmol/L ethylene glycol-bis(2-aminoethyl ether)tetraacetic acid (EGTA), 2 mmol/L MgCl2, 1 mmol/L dithiothreitol (DTT), 5 μmol/L paclitaxel, 167 μg/mL bovine serum albumin (BSA), 41.7 μg/mL tubulin (Cytoskeleton, Catalog No. TL238), 333 μmol/L MESG substrate (2-amino-6-mercapto-7-methylpurine riboside) (Molecular Probes, Catalog Number E-6646), 1.67 U/mL purine nucleoside phosphorylase (Molecular Probe, Catalog No. E-6646) and 1.33 μg/mL of the human Eg5 motor domain purified sample, and Solution B consisting of 25 mmol/L piperazine N,N′-bis(ethanesulfonate) (PIPES)/KOH (pH 6.8), 1 mmol/L ethylene glycol-bis(2-aminoethyl ether)tetraacetic acid (EGTA), 2 mmol/L MgCl2, 1 mmol/L dithiothreitol (DTT), 5 μmol/L paclitaxel and 2.5 mmol/L ATP. Solution A was dispensed into each well of a 96-well plate as 45 μL portions. Solution B was used to serially dilute a test compound. The diluted test compound solutions in a volume of 30 μL were mixed with Solution A added beforehand in each well of the 96-well plate to start the enzymatic reaction. The enzymatic reaction was performed at 30° C. for 30 minutes. Absorbance at 360 nm, which serves as an index of the ATPase activity, was measured using a plate reader (Molecular Device, SpectraMax 340PC^384). The absorbance observed in the presence of Eg5 and absence of the test compound was defined 100%, and the absorbance observed in the absence of both Eg5 and the test compound was defined 0%. The relative activity was calculated to calculate IC50 value.

The mark [3] stands for this setting: HCT 116 cells, 72 hours incubation, XTT, 50% inhibition of cell proliferation, read-out: GI50.

In the case of `CC(=O)N1N=C(c2ccco2)SC1(C)c1ccccc1` (stereo not drawn) [Compound 1], halving of growth in test [1] (HCT-116, 72 h) (GI50) required 530 nM. In addition, the IC50 (in general, the concentration that inhibits the measured activity by half) in test [2] is not above 10 µM.
Take `CC(=O)N1N=C(c2cccn2C(=O)OC(C)(C)C)SC1(C)c1ccccc1` (stereo not drawn) [Compound 5]: the GI50 (as a rule, the concentration that inhibits growth by half) in test [1] (setting [3]) turned out to be 170 nM. In addition, the IC50 in test [2] is not above 10 µM.
In the same order, the values of `CC(=O)N1N=C(c2ccccc2)SC1(CNS(C)(=O)=O)c1ccccc1` (stereo not drawn) [Compound 10] are 180 nM and not above 10 µM.
For the compound `CC(=O)N1N=C(C#CC(C)(C)C)SC1(CNS(C)(=O)=O)c1ccccc1` (stereo not drawn) [Compound 20], the GI50 in test [1] (setting [3]) was determined as 200 nM. Moreover, the IC50 in test [2] is not above 10 µM.
For `CC(=O)N1N=C(c2ccccc2F)SC1(C)c1ccccc1` (stereo not drawn) [Compound 22], in that order: 83 nM and not above 10 µM.
In the same order, the values of `CC(=O)N1N=C(c2cccc(F)c2)SC1(C)c1ccccc1` (stereo not drawn) [Compound 24] are 220 nM and not above 10 µM.
For `CC(=O)N1N=C(C(=O)NC(C)(C)C)SC1(C)c1ccccc1` (stereo not drawn) [Compound 44], in that order: 410 nM and not above 10 µM.
As to `CC(=O)N1N=C(c2ccccc2F)SC1(CNS(=O)(=O)CCN)c1ccccc1` (stereo not drawn) [Compound 49], the GI50 in test [1] (setting [3]) is less than 100 nM. Further, in test [2], the IC50 was not above 10 µM.
For `CC(=O)N1N=C(c2ccccc2F)SC1(CNC(=O)CN)c1ccccc1` (stereo not drawn) [Compound 55], in that order: less than 100 nM and not above 10 µM.
As for `CC(=O)N1N=C(c2ccccc2F)SC1(CCNC(=O)CCCN(C)C)c1ccccc1` (stereo not drawn) [Compound 61], the GI50 in test [1] (setting [3]) was less than 100 nM. For the same compound, the IC50 in test [2] was not above 10 µM.
For `CC(=O)N1N=C(c2ccccc2F)SC1(CCCN1CCN(C)CC1)c1ccccc1` (stereo not drawn) [Compound 62], in that order: 160 nM and not above 10 µM.
In the same order, the values of `CC(=O)N1N=C(C(=O)NC(C)(C)C)SC1(CNS(=O)(=O)CCN(C)C)c1ccccc1` (stereo not drawn) [Compound 68] are 190 nM and not above 10 µM.
